# Source: PMC10732398 (PLOS Pathogens, 2023)
# Assays:
# [1] = system: ⍺4β7 on primary CD8^+ T cells; experiment: Flow cytometry: FAM-conjugated pCD4^165-178 binding to RA-treated primary CD8^+ T cells; design: species or system human; settings: FAM-Ttds-labelled peptide 1.25 μg/200,000 cells in 100 μl; MnCl2; 3 independent experiments
# Description: To further investigate the interaction between pCD4^165-178 and ⍺4β7 we attached a fluorescein dye to its amino terminus via a trioxatridecan-succinamic acid (Ttds) linker (Fig 5A). A scrambled pCD4^165-178 was employed as a control. […] FIB504 and vedolizumab inhibited binding by ~50%. This inhibition pattern resembles the one we obtained when inhibiting D1D2-Ig⍺tp with the same antagonists (Fig 3). We conclude that the CD4 D2 G β-strand binds directly to the headpiece region of ⍺4β7 in a cation dependent manner. Support for this conclusion, in the form of site directed mutagenesis within the D2 G β-strand is provided below.
# Fig 5 Direct binding of pCD4^165-178 to ⍺4β7 on primary T cells. (A) Sequence of FAM -conjugated pCD4^165-178 and a scrambled derivative (FAM-scr pCD4^165-178). (B) Flow-cytometry derived histogram of pCD4^165-178 binding to RA -cultured CD8^+ T cells. pCD4^165-178 in the presence (green), or absence of Mn^++(black). Unstained cells are shown (grey). (C) Binding of pCD4^165-178 and its scrambled derivative to CD8^+ T cells in the presence of MnCl2 as in panel B, and in the presence of ⍺4 and ⍺4β7 antagonists, as indicated. Y-axis indicates % cells bound. Error bars represent standard error from 3 independent experiments.
# Cells were stained with fluoresceine conjugated mAbs or recombinant proteins using standard procedures preceded by Fc receptor blocking with human IgG. Buffers used were 10 mM HEPES 150 mM NaCl (HBS Buffer) with 100 μM CaCl2. 1 mM MnCl2 was also included, unless otherwise specified. Buffer without divalent cations included 0.1 mM EDTA. Unlabeled mAb or protein inhibitors were preincubated with cells or proteins at a 5X molar excess for 15 min on ice. FAM labeled peptides were used at 1.25 μg/ 200,000 cells in a 100 μl volume. Data were acquired using a FACSCanto II (BD Biosciences) and analyzed with FlowJo software (BD Biosciences). Plotted MFI values represent absolute values.
# [2] = system: ⍺4β7 transfected 293T cells; experiment: Flow cytometry: staining of 293T cells co-transfected with ⍺4 and β7 expression vectors; format: binding; settings: Fig 1C
# Description: The FRET/FLIM results described above indicate a direct interaction between CD4 and ⍺4β7. […] To this end we employed a fluorescently labelled soluble dodecameric CD4 Ig fusion protein, termed D1D2-Ig⍺tp, that includes the two N-terminal Ig-like domains of CD4 (D1D2, aa 1–180), followed by IgG1 CH2 and CH3 domains, followed by the 18 aa tail-piece domain of IgA (⍺tp). In this oligomer, 12 D1D2-Igs are arranged in a disulphide linked daisy-chain (Fig 1A). Primary CD4^+ T cells, some of which express ⍺4β7, were reacted with D1D2-Ig⍺tp and analyzed by flow-cytometry. A second oligomeric Ig fusion protein, MicA-Ig⍺tp, which includes the two N-terminal domains of MicA, was employed as a specificity control. […] MAdCAM-Ig was employed as a positive control. […] We conclude that an oligomeric soluble CD4 that includes only its two N-terminal domains can bind to ⍺4β7 in a specific way.
# Fig 1 Binding of soluble CD4 to ⍺4β7 on CD4^+ T cells. (A) Schematic of D1D2-Ig⍺tp. […] X-axis indicates geometric mean fluorescence intensity (gMFI). […]
# Cells were stained with fluoresceine conjugated mAbs or recombinant proteins using standard procedures preceded by Fc receptor blocking with human IgG. […] Data were acquired using a FACSCanto II (BD Biosciences) and analyzed with FlowJo software (BD Biosciences). […]
smiles,measurement,setting,value
"CCOCc1cc(OC)c(-c2ccc(C[C@H](NC(=O)c3c(F)cccc3F)C(=O)O)cc2)c(OC)c1 [FG, firategrast]",reduction of pCD4^165-178 binding to CD8^+ T cells,[1],~ 80%
same,inhibition of D1D2-Ig⍺tp and MAdCAM-Ig binding to ⍺4β7 transfected 293T cells (in words),[2],inhibited
